Experimental data as given in patent US11731943B2, “Therapeutic compounds, compositions and methods of use thereof” (priority 2016, dated 2023).
Where two headings read alike, the source gives them in different places.

Legend:
[1] = molecular target: isolated recombinant JAK2 kinase domain (Homo sapiens (Human), UniProt O60674); assay: JAK2 enzyme assay (Caliper LabChip, Ki); format: biochemical
Description: (§1) JAK Enzyme Assays were carried out as follows:
The activity of the isolated recombinant JAK1 and JAK2 kinase domain was measured by monitoring phosphorylation of a peptide derived from JAK3 ([…] fluorescently labeled on the N-terminus with 5-carboxyfluorescein) using the Caliper LabChip® technology (Caliper Life Sciences, Hopkinton, Mass.). […] Reactions were incubated at 22° C. in 384-well polypropylene microtiter plates for 30 minutes and then stopped by addition of 25 μL of an EDTA containing solution (100 mM HEPES buffer (pH 7.2), 0.015% Brij-35, 150 mM EDTA), resulting in a final EDTA concentration of 50 mM. After termination of the kinase reaction, the proportion of phosphorylated product was determined as a fraction of total peptide substrate using the Caliper LabChip® 3000 according to the manufacturer's specifications.

[2] = molecular target: isolated recombinant JAK1 kinase domain (Homo sapiens (Human), UniProt P23458); assay: JAK1 enzyme assay (Caliper LabChip, Ki); format: biochemical
Description: as §1
The activity of the isolated recombinant JAK1 and JAK2 kinase domain was measured by monitoring phosphorylation of a peptide derived from JAK3 (Val-Ala-Leu-Val-Asp-Gly-Tyr-Phe-Arg-Leu-Thr-Thr, fluorescently labeled on the N-terminus with 5-carboxyfluorescein) using the Caliper LabChip® technology (Caliper Life Sciences, Hopkinton, Mass.). […] Reactions were incubated at 22° C. in 384-well polypropylene microtiter plates for 30 minutes and then stopped by addition of 25 μL of an EDTA containing solution (100 mM HEPES buffer (pH 7.2), 0.015% Brij-35, 150 mM EDTA), resulting in a final EDTA concentration of 50 mM. After termination of the kinase reaction, the proportion of phosphorylated product was determined as a fraction of total peptide substrate using the Caliper LabChip® 3000 according to the manufacturer's specifications. Ki values were then determined using the Morrison tight binding model (Morrison, J. F., Biochim. Biophys. Acta. 185:269-296 (1969); William, J. W. and Morrison, J. F., Meth. Enzymol., 63:437-467 (1979)) modified for ATP-competitive inhibition [Ki=Ki,app/(1+[ATP]/Km,app)].

isolated recombinant JAK1 kinase domain, sequence (P23458 875-1153): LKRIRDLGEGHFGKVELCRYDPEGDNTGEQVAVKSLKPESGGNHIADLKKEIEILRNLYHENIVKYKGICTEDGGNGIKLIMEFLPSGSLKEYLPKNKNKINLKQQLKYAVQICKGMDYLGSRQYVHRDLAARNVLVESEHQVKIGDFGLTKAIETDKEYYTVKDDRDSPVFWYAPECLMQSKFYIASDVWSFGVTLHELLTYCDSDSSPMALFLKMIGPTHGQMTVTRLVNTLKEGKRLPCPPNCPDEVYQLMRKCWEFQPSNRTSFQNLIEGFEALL
isolated recombinant JAK2 kinase domain, sequence (O60674 849-1124): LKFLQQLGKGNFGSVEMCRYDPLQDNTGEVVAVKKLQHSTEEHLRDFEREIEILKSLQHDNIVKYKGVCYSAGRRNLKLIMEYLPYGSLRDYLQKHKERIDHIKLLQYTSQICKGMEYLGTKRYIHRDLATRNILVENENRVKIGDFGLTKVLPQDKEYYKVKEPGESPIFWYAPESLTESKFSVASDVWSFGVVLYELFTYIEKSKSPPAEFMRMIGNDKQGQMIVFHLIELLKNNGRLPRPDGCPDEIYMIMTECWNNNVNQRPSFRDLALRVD

COC1(C(F)(F)F)CN([C@H]2CC[C@](CC#N)(n3cc(C(N)=O)c(NC(=O)C4CC4)n3)CC2)C1 [Example 132]
Ki [1]: > 319 nM | Ki ([2]; read-out: JAK1 Ki): 217 nM

N#CC[C@]1(n2cc(C(N)=O)c(NC(=O)C3CC3)n2)CC[C@@H](NCCC(F)(F)F)CC1 [Example 126]
Ki [1]: > 319 nM | Ki [2]: 188 nM

N#CCC1(n2cc(C(N)=O)c(NC(=O)C3CC3)n2)CCN(Cc2cccc(-c3ccccc3)c2)CC1 (racemic) [Example 37]
Ki [1]: 268 nM | Ki [2]: 34.6 nM

COC(=O)Nc1nn(C2(CC#N)CCN(CC(F)(F)F)CC2)cc1C(N)=O [Example 4, Methyl (4-carbamoyl-1-(4-(cyanomethyl)-1-(2,2,2-trifluoroethyl)piperidin-4-yl)-1H-pyrazol-3-yl)carbamate]
Ki [1]: 34.5 nM | Ki ([2]; read-out: JAK1 Ki): 8.2 nM

N#CCC1(n2cc(C(N)=O)c(NC(=O)[C@H]3CC34CCC4)n2)CCN(CC(F)(F)F)CC1 [Example 31]
Ki [1]: 189 nM | Ki ([2]; read-out: JAK1 Ki): 96.4 nM

N#CCC1(n2cc(C(N)=O)c(NC(=O)C3CC3)n2)CCN(Cc2cccc(SC(F)(F)F)c2)CC1 [Example 67]
Ki [1]: > 319 nM | Ki ([2]; read-out: JAK1 Ki): 100 nM

N#CC[C@]1(n2cc(C(N)=O)c(NC(=O)C3CC3)n2)CC[C@H](NC2CCOCC2)CC1 [Example 103]
Ki [1]: > 319 nM | Ki [2]: 38 nM

N#CCC1(n2cc(C(N)=O)c(NC(=O)C3CC3)n2)CCN(Cc2ccc3c(c2)CSC3)CC1 [Example 91]
Ki [1]: 173 nM | Ki ([2]; read-out: JAK1 Ki): 8.3 nM

N#CCC1(n2cc(C(N)=O)c(NC(=O)C3CC3)n2)CCN(Cc2ccc(-c3ccn(C(F)(F)F)n3)cc2)CC1 [Example 83]
Ki [1]: 313 nM | Ki ([2]; read-out: JAK1 Ki): 16.1 nM

N#CC[C@]1(n2cc(C(N)=O)c(NC(=O)C3CC3)n2)CC[C@@H](NC2CC(F)(F)C2)CC1 [Example 173, 1-[1-(cyanomethyl)-4-[(3,3-difluorocyclobutyl)amino]cyclohexyl]-3-(cyclopropanecarbonylamino) pyrazole-4-carboxamide]
Ki [1]: 71.3 nM | Ki [2]: 8.7 nM

CS(=O)(=O)c1ccc(CN2CCC(CC#N)(n3cc(C(N)=O)c(NC(=O)C4CC4)n3)CC2)cc1 [Example 71]
Ki [1]: > 319 nM | Ki ([2]; read-out: JAK1 Ki): 34.1 nM

N#CC[C@]1(n2cc(C(N)=O)c(NC(=O)C3CC3)n2)CC[C@H](NCc2cccc(F)c2)CC1 [Example 113]
Ki [1]: 187 nM | Ki [2]: 14.4 nM

N#CCC1(n2cc(C(N)=O)c(NC(=O)C3CC3)n2)CCN(Cc2cccc(Cl)c2)CC1 [Example 59]
Ki [1]: 35.9 nM | Ki ([2]; read-out: JAK1 Ki): 4.7 nM

N#CC[C@]1(n2cc(C(N)=O)c(NC(=O)C3CC3)n2)CC[C@@H](NC2CCC(F)(F)CC2)CC1 [Example 175, 1-[1-(cyanomethyl)-4-[(4,4-difluorocyclohexyl)amino]cyclohexyl]-3-(cyclopropanecarbonylamino) pyrazole-4-carboxamide]
Ki [1]: 321 nM | Ki [2]: 14.1 nM

N#CCC1(n2cc(C(N)=O)c(NC(=O)C3CC3)n2)CCN(Cc2cccc(C#N)c2)CC1 [Example 65]
Ki [1]: 123 nM | Ki ([2]; read-out: JAK1 Ki): 13.7 nM

N#CCC1(n2cc(C(N)=O)c(NC(=O)C3CC3)n2)CCN(Cc2ccc(SC(F)(F)F)cc2)CC1 [Example 68]
Ki [1]: > 319 nM | Ki ([2]; read-out: JAK1 Ki): 39 nM

N#CC[C@]1(n2cc(C(N)=O)c(NC(=O)C3CC3)n2)CC[C@@H](NCc2ccc(F)cc2)CC1 [Example 116]
Ki [1]: > 319 nM | Ki [2]: 164 nM

N#CCC1(n2cc(C(N)=O)c(NC(=O)[C@H]3C[C@H]3F)n2)CCN(CC(F)(F)F)CC1 [Example 29]
Ki [1]: 11.9 nM | Ki ([2]; read-out: JAK1 Ki): 10.1 nM

N#CCC1(n2cc(C(N)=O)c(NC(=O)C3CC3)n2)CCN(CC(O)c2ccccc2)CC1 (stereo not drawn) [Example 20, 1-(4-(cyanomethyl)-1-(2-hydroxy-2-phenylethyl)piperidin-4-yl)-3-(cyclopropanecarboxamido)-1H-pyrazole-4-carboxamide]
Ki [1]: > 319 nM | Ki [2]: 447 nM

N#CCC1(n2cc(C(N)=O)c(NC(=O)[C@H]3C[C@@H]3C3CC3)n2)CCN(CC(F)(F)F)CC1 (stereo in doubt) [Example 177, 1-[4-(cyanomethyl)-1-(2,2,2-trifluoroethyl)-4-piperidyl]-3-[(2-cyclopropylcyclopropanecarbonyl)amino]pyrazole-4-carboxamide]
Ki [1]: 226 nM | Ki ([2]; read-out: JAK1 Ki): 18.7 nM

CS(=O)(=O)Nc1ccccc1CN1CCC(CC#N)(n2cc(C(N)=O)c(NC(=O)C3CC3)n2)CC1 [Example 44]
Ki [1]: 174 nM | Ki ([2]; read-out: JAK1 Ki): 27.6 nM

N#CCC1(n2cc(C(N)=O)c(NC(=O)C3CC3)n2)CCN(Cc2ccc3cc[nH]c3c2)CC1 [Example 72]
Ki [1]: 31.3 nM | Ki ([2]; read-out: JAK1 Ki): 8.3 nM

N#CCC1(n2cc(C(N)=O)c(NC(=O)C3CC3)n2)CCN(Cc2ccccc2C(F)(F)F)CC1 [Example 61]
Ki [1]: 118 nM | Ki ([2]; read-out: JAK1 Ki): 8.3 nM

COC1CN([C@H]2CC[C@](CC#N)(n3cc(C(N)=O)c(NC(=O)C4CC4)n3)CC2)C1 [Example 101]
Ki [1]: > 319 nM | Ki [2]: > 562 nM

N#CC[C@]1(n2cc(C(N)=O)c(NC(=O)C3CC3)n2)CC[C@@H](N2CC(C(F)(F)F)C2)CC1 (single isomer, unassigned) [Example 7]
Ki [1]: > 319 nM | Ki ([2]; read-out: JAK1 Ki): > 562 nM

N#CCC1(n2cc(C(N)=O)c(NC(=O)C3CC3)n2)CCN(Cc2ccc(N3CCCC3)cc2)CC1 [Example 84]
Ki [1]: > 319 nM | Ki ([2]; read-out: JAK1 Ki): 85 nM

N#CCC1(n2cc(C(N)=O)c(NC(=O)C3CC3)n2)CCN(Cc2ccc(OC(F)(F)F)cc2)CC1 [Example 49]
Ki [1]: 190 nM | Ki ([2]; read-out: JAK1 Ki): 23.3 nM

N#CCC1(n2cc(C(N)=O)c(NC(=O)C3CC3)n2)CCN(C(CO)c2ccccc2)CC1 (stereo not drawn) [Example 19, 1-(4-(Cyanomethyl)-1-(2-hydroxy-1-phenylethyl)piperidin-4-yl)-3-(cyclopropanecarboxamido)-1H-pyrazole-4-carboxamide]
Ki [1]: > 319 nM | Ki [2]: 69.3 nM

N#CC[C@]1(n2cc(C(N)=O)c(NC(=O)C3CC3)n2)CC[C@H](NCCC(F)(F)F)CC1 [Example 125]
Ki [1]: 78.3 nM | Ki [2]: 7.3 nM

N#CCC1(n2cc(C(N)=O)c(NC(=O)[C@@H]3C[C@@H]3F)n2)CCN(CC(F)(F)F)CC1 [Example 28]
Ki [1]: 30.9 nM | Ki ([2]; read-out: JAK1 Ki): 12.1 nM

N#CCC1(n2cc(C(N)=O)c(NC(=O)C3CC3)n2)CCN(Cc2cccc(C(F)(F)F)c2)CC1 [Example 62]
Ki [1]: 285 nM | Ki ([2]; read-out: JAK1 Ki): 27.6 nM

N#CCC1(n2cc(C(N)=O)c(NC(=O)C3CC3)n2)CCN(Cc2ccccc2-c2ccccc2)CC1 [Example 38]
Ki [1]: 107 nM | Ki ([2]; read-out: JAK1 Ki): 8.1 nM

CC1(C)CN([C@H]2CC[C@](CC#N)(n3cc(C(N)=O)c(NC(=O)C4CC4)n3)CC2)C1 [Example 105]
Ki [1]: > 319 nM | Ki [2]: > 562 nM

N#CC[C@]1(n2cc(C(N)=O)c(NC(=O)C3CC3)n2)CC[C@@H](N2CC3(CCC3)C2)CC1 [Example 108]
Ki [1]: 205 nM | Ki [2]: 466 nM

CN[C@H]1CC[C@@](CC#N)(n2cc(C(N)=O)c(NC(=O)C3CC3)n2)CC1 [Example 100]
Ki [1]: > 319 nM | Ki [2]: > 562 nM

N#CC[C@]1(n2cc(C(N)=O)c(NC(=O)C3CC3)n2)CC[C@@H](NCc2cccc(F)c2)CC1 [Example 114]
Ki [1]: > 319 nM | Ki [2]: > 562 nM
